Data taken from BindingDB's records for doi:10.1038/nchembio.2134 (University of Pennsylvania, 2016).

How the values were obtained:
Experiment in all cases: HDAC6 fluorescence anisotropy assay
Conditions in all cases: 25 °C
[1] = target: T1, Histone deacetylase 6 [440-798] (Danio rerio, UniProt F8W4B7)
T1 construct: 440-798
T1 sequence (F8W4B7 whole entry): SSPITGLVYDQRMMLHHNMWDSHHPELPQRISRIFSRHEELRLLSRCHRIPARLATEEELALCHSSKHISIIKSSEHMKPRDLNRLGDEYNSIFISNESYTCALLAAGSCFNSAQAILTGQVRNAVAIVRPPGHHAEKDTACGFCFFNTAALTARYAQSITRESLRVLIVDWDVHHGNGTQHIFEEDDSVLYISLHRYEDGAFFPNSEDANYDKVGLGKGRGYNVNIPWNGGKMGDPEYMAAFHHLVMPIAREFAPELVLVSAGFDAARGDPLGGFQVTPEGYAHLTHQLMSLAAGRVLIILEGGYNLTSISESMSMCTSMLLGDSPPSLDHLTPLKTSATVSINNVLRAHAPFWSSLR

[2] = target: T2, Histone deacetylase 6 [84-835] (Homo sapiens, UniProt Q9UBN7)
T2 construct: 84-835
T2 sequence (Q9UBN7 whole entry): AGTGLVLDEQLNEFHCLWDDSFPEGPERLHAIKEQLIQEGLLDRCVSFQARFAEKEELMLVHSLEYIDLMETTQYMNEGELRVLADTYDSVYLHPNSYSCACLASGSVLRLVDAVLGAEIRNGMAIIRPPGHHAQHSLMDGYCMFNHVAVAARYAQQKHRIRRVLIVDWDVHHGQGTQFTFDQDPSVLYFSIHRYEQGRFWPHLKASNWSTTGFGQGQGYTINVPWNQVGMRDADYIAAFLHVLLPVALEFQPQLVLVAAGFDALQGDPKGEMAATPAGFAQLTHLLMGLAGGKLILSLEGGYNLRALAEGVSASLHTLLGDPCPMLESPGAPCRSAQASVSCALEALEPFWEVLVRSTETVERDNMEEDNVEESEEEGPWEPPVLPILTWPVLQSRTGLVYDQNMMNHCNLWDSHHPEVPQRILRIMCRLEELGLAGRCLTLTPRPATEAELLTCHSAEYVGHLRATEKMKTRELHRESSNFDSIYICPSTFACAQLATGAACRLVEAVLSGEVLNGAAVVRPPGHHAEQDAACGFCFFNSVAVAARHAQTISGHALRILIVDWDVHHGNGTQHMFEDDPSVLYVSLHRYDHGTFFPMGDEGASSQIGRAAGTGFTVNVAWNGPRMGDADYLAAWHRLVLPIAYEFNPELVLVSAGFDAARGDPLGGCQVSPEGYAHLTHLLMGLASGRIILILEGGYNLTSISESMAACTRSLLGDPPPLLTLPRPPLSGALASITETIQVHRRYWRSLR

[3] = target: T3, Histone deacetylase 6 [84-835,H651V] (Homo sapiens, UniProt Q9UBN7, H651V)
T3 construct: 84-835
T3 sequence (Q9UBN7 84-835 H651V): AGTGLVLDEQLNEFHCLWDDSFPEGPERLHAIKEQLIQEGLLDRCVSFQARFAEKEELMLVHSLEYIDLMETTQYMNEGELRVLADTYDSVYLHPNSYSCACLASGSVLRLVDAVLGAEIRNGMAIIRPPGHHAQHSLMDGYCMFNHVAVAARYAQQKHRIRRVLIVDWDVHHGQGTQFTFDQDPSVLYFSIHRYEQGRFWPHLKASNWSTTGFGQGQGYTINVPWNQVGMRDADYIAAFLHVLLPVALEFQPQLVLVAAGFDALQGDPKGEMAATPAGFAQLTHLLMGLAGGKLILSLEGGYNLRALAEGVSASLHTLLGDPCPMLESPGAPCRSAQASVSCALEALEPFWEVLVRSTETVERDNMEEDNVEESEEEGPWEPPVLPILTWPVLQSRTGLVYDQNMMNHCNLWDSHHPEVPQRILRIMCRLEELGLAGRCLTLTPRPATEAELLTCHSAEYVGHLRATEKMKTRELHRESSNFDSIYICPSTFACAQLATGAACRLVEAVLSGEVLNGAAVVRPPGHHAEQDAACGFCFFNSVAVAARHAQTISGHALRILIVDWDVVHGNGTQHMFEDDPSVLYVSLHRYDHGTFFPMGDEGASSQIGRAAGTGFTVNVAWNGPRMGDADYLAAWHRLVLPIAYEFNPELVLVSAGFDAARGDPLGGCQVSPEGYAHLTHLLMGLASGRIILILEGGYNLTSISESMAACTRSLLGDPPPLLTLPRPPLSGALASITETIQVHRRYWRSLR

[4] = target: T4, Histone deacetylase 6 [60-420] (Danio rerio, UniProt F8W4B7)
T4 construct: 60-420
T4 sequence (F8W4B7 whole entry): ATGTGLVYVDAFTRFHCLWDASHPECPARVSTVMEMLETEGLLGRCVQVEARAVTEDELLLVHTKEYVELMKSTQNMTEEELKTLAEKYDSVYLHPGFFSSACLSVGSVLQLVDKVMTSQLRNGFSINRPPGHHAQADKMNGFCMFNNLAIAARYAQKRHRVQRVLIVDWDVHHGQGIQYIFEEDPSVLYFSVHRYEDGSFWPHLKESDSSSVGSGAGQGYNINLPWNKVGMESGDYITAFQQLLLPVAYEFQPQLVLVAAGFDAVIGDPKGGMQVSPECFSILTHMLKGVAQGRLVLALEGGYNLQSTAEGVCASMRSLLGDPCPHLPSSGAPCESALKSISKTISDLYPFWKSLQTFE

[5] = target: T5, Histone deacetylase 6 [440-798,S531A] (Danio rerio, UniProt F8W4B7, S531A)
T5 construct: 440-798
T5 sequence (F8W4B7 as listed by the source S531A): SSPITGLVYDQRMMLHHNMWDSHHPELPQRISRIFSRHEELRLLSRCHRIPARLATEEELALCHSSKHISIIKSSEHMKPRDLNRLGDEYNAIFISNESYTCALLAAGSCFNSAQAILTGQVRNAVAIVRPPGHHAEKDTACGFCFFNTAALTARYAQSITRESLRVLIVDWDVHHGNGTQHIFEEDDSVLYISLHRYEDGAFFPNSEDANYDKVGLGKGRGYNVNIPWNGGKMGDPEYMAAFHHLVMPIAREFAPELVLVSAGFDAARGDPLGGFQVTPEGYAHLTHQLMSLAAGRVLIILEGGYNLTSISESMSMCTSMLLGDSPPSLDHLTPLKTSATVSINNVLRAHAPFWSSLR

[6] = target: T6, Histone deacetylase 6 [60-420,H82F,F202Y] (Danio rerio, UniProt F8W4B7, F202Y/H82F)
T6 construct: 60-420
T6 sequence (F8W4B7 as listed by the source H82F/F202Y): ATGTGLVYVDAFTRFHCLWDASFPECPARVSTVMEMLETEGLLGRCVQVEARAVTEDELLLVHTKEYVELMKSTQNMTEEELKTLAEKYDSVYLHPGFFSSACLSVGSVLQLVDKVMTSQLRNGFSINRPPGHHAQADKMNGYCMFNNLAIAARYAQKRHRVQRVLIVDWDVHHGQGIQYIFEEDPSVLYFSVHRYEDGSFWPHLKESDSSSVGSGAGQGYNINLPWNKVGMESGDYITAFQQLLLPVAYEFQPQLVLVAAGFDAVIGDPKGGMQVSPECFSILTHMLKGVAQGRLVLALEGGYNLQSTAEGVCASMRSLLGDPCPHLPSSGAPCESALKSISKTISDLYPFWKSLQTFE

[7] = target: T7, Histone deacetylase 6 [84-835,H255V] (Homo sapiens, UniProt Q9UBN7, H255V)
T7 construct: 84-835
T7 sequence (Q9UBN7 84-835 H255V): as the sequence (Q9UBN7 84-835 H651V) above, with H172V, V568H counted along it

SMILES | IC50 [1] | Ki [1] | further results
O=C(/C=C/c1cccc(S(=O)(=O)Nc2ccccc2)c1)NO [Belinostat] | 1.9 nM | 1.1 nM | –
Cc1[nH]c2ccccc2c1CCNCc1ccc(C=CC(=O)NO)cc1 [Panobinostat] | 2.5 nM | 1.4 nM | –
O=C(NO)c1ccc(CC(=O)N(CCO)c2ccccc2)cc1 [HPOB] | 1.8 nM | 1 nM | –
O=C(CCCCCCC(=O)Nc1ccc(-c2c3ccc(=O)cc-3oc3cc(O)ccc23)c(C(=O)O)c1)NO [fl-SAHA] | – | – | Kd [2]: 300 nM; Kd [3]: 30 µM; Kd [1]: 50 nM; Kd [4]: 1600 nM; Kd [5]: 170 nM; Kd [6]: 2900 nM; Kd [7]: 240 nM
O=C(CCCCCCC(=O)Nc1ccccc1)NO [Zolinza] | ≤ 1.1 nM | 0.6 nM | –
CC(=O)C(F)(F)F [Trifluoroketone] | 1400 nM | 800 nM | –
